Test results: patent publication US12240846B2 (Enliven Inc., priority 2020, dated 2025)

Experiments:
ABL1 (T315I) = ABL1 (T315I) (Homo sapiens, UniProt P00519, T315I); assay: Luminescence-based ABL kinase assay (300 μM ATP), ADP-Glo; type: biochemical
ABL1 = target: T1, ABL1 (Homo sapiens, UniProt P00519); assay: as above; type: biochemical
T1 construct: purchased Carna Biosciences
Excerpt: Compounds were serially diluted in DMSO. […] Luminescence signal positively correlates with kinase activity.

K562 cells = assay: K562 cell proliferation assay (CellTiter-Glo); type: cell-based; details: Homo sapiens, K562 cell viability, 72 hours, read-out: Cell Line (IC50, nM) K562
Procedure: (§1) K562 and HL60 Cell Proliferation Assay
(§2) K562 and HL60 cells, cultured in Iscove's Modified Dulbecco's Media (IMDM) supplemented with 10% FBS, were harvested at 50-80% confluency and plated at 2,000 cells per well (K562) or 1,500 cells per well (HL60) in 384-well tissue culture plates. A subset of wells contained media only (low control, LC). […] The plates were placed in a 37° C. incubator with 5% CO2 for 72 hours. Cell viability was measured using a CellTiter-Glo luminescent cell viability assay (Promega), which allows for relative quantification of metabolically active cells by luminescence-based measurements of intracellular ATP concentrations. Briefly, plates were removed from the incubator and equilibrated for 15 minutes at room temperature prior to the addition of 40 μL of CellTiter-Glo reagent. Plates were then incubated for 30 minutes at room temperature. Luminescence was measured using an EnSpire plate reader (Perkin Elmer). As noted above, luminescence values from wells with DMSO only or media without cells were used as high and low controls (HC and LC), respectively. Normalized percent viability was calculated as follows: percent viability=100×(Lumsample−LumLC)/(LumHC−LumLC).

HL60 cells = assay: HL60 cell proliferation assay (CellTiter-Glo); type: cell-based; details: Homo sapiens, HL-60, HL60 cell viability, 72 hours, read-out: Cell Line (IC50, nM) HL60
Procedure: as §1, §2

| Compound | IC50 (ABL1 (T315I)) [nM] | IC50 (ABL1) [nM] | IC50 (K562 cells) [nM] | IC50 (HL60 cells) [nM] |
| --- | --- | --- | --- | --- |
| Cn1c(-c2cccc3[nH]cnc23)cc2cc(NC(=O)[C@@H]3C[C@@H]3F)ncc21 [Compound 73, (1S,2S)-N-[2-(1H-1,3-benzodiazol-4-yl)-1-methylpyrrolo[2,3-c]pyridin-5-yl]-2-fluorocyclopropane-1-carboxamide] | 315 | 519 | 3710 | > 10000 |
| COc1ccccc1-c1cc2cc(NC(=O)NCCN3CCOCC3)ncc2n1C [Compound 80, 1-(2-(2-methoxyphenyl)-1-methyl-1H-pyrrolo[2,3-c]pyridin-5-yl)-3-(2-morpholinoethyl)urea] | 193 | 155 | 1610 | > 10000 |
| COc1cccc(OC)c1-c1cc2cc(NC(=O)NCCN3CCNCC3)ncc2n1C [Compound 81, 3-[2-(2,6-dimethoxyphenyl)-1-methylpyrrolo[2,3-c]pyridin-5-yl]-1-[2-(piperazin-1-yl)ethyl]urea] | 23.5 | 17.2 | 40.4 | > 10000 |
| COc1ncc(F)c(OC)c1-c1cc2cc(NC(=O)NCCN3CCNCC3)ncc2n1C [Compound 82, 3-[2-(5-fluoro-2,4-dimethoxypyridin-3-yl)-1-methylpyrrolo[2,3-c]pyridin-5-yl]-1-[2-(piperazin-1-yl)ethyl]urea formic acid] | 88.1 | 31.6 | 125 | > 10000 |
| CCN1CCN(CCNC(=O)Nc2cc3cc(-c4c(OC)ccnc4OC)n(C)c3cn2)CC1 [Compound 83, 3-[2-(2,4-dimethoxypyridin-3-yl)-1-methylpyrrolo[2,3-c]pyridin-5-yl]-1-[2-(4-ethylpiperazin-1-yl)ethyl]urea formic acid] | 230 | 106 | 160 | > 10000 |
| COc1ccnc(C)c1-c1cc2cc(NC(=O)[C@@H]3C[C@@H]3F)ncc2n1C [Compound 86, (1S,2S)-2-fluoro-N-(2-(4-methoxy-2-methylpyridin-3-yl)-1-methyl-1H-pyrrolo[2,3-c]pyridin-5-yl)cyclopropane-1-carboxamide] | 2930 | 200 | 700 | > 10000 |
| CCN1CCN(CCNC(=O)Nc2cc3cc(-c4c(OC)cccc4OC)n(C)c3cn2)CC1 [Compound 87, 1-(2-(2,6-dimethoxyphenyl)-1-methyl-1H-pyrrolo[2,3-c]pyridin-5-yl)-3-(2-(4-ethylpiperazin-1-yl)ethyl)urea] | 76.6 | 35 | 78.5 | > 10000 |
| [2H]C([2H])([2H])Oc1ncc(F)cc1-c1cc2cc(NC(=O)[C@@H]3C[C@@H]3F)ncc2n1C([2H])([2H])[2H] [Compound 88, (1S,2S)-2-fluoro-N-(2-(5-fluoro-2-(methoxy-d3)pyridin-3-yl)-1-(methyl-d3)-1H-pyrrolo[2,3-c]pyridin-5-yl)cyclopropane-1-carboxamide] | 459 | 409 | 166 | 5150 |
| CCc1ncnc(OC)c1-c1cc2cc(NC(=O)[C@@H]3C[C@@H]3F)ncc2n1C [Compound 92, (1S,2S)-N-[2-(4-ethyl-6-methoxypyrimidin-5-yl)-1-methylpyrrolo[2,3-c]pyridin-5-yl]-2-fluorocyclopropane-1-carboxamide] | 1650 | 494 | 227 | > 10000 |
| COc1ncnc(OC)c1-c1cc2cc(NC(=O)[C@@H]3C[C@@H]3F)ncc2[nH]1 [Compound 99, (1S,2S)-N-(2-(4,6-dimethoxypyrimidin-5-yl)-1H-pyrrolo[2,3-c]pyridin-5-yl)-2-fluorocyclopropane-1-carboxamide] | > 10000 | 111 | 396 | > 10000 |
| COc1ncnc(O)c1-c1cc2cc(NC(=O)[C@@H]3C[C@@H]3F)ncc2n1C [Compound 106, (1S,2S)-2-fluoro-N-[2-(4-hydroxy-6-methoxypyrimidin-5-yl)-1-methylpyrrolo[2,3-c]pyridin-5-yl]cyclopropane-1-carboxamide] | > 10000 | 1690 | > 10000 | > 10000 |

Next, values leading:

| IC50 (ABL1 (T315I)) [nM] | IC50 (ABL1) [nM] | IC50 (K562 cells) [nM] | IC50 (HL60 cells) [nM] | Compound |
| --- | --- | --- | --- | --- |
| 30.2 | 19.6 | 44.7 | 59.6 | COc1cc2[nH]ncc2cc1-c1cc2cc(NC(=O)[C@@H]3C[C@@H]3F)ncc2n1C [Compound 74, (1S,2S)-2-fluoro-N-[2-(6-methoxy-1H-indazol-5-yl)-1-methylpyrrolo[2,3-c]pyridin-5-yl]cyclopropane-1-carboxamide] |
| 147 | 4.33 | 16.5 | 1710 | COc1ncnc(OC2CC2)c1-c1cc2cc(NC(=O)[C@@H]3C[C@@H]3F)ncc2n1C [Compound 85, (1S,2S)-N-[2-(4-cyclopropoxy-6-methoxypyrimidin-5-yl)-1-methylpyrrolo[2,3-c]pyridin-5-yl]-2-fluorocyclopropane-1-carboxamide] |
| 15 | 76.6 | 153 | 2110 | COc1nccc(F)c1-c1cc2cc(NC(=O)[C@@H]3C[C@@H]3F)ncc2n1C [Compound 89, (1S,2S)-2-fluoro-N-[2-(4-fluoro-2-methoxypyridin-3-yl)-1-methylpyrrolo[2,3-c]pyridin-5-yl]cyclopropane-1-carboxamide] |
| 127 | 57.4 | 79.4 | 9640 | COc1ncnc(OC)c1-c1cc2cc(NC(=O)[C@H]3C[C@H]3F)ncc2n1C [Compound 94, (1R,2R)-N-[2-(4,6-dimethoxypyrimidin-5-yl)-1-methylpyrrolo[2,3-c]pyridin-5-yl]-2-fluorocyclopropane-1-carboxamide] |
| 76.4 | 36.6 | 91.5 | 3320 | COc1ccnc(OC)c1-c1cc2cc(NC(=O)[C@H]3C[C@H]3F)ncc2n1C [Compound 97, (1R,2R)-N-[2-(2,4-dimethoxypyridin-3-yl)-1-methylpyrrolo[2,3-c]pyridin-5-yl]-2-fluorocyclopropane-1-carboxamide] |
| 79 | 71.4 | 60.9 | 199 | CNc1nc(OC)c(-c2cc3cc(NC(=O)[C@@H]4C[C@@H]4F)ncc3n2C)c(OC)n1 [Compound 105, (1S,2S)-N-(2-(4,6-dimethoxy-2-(methylamino)pyrimidin-5-yl)-1-methyl-1H-pyrrolo[2,3-c]pyridin-5-yl)-2-fluorocyclopropane-1-carboxamide] |
| 94.6 | 17.4 | 40.5 | 2550 | COc1cnnc(OC)c1-c1cc2cc(NC(=O)[C@@H]3C[C@@H]3F)ncc2n1C [Compound 107, (1S,2S)-N-[2-(3,5-dimethoxypyridazin-4-yl)-1-methylpyrrolo[2,3-c]pyridin-5-yl]-2-fluorocyclopropane-1-carboxamide] |
| 12.4 | 6.32 | 736 | > 10000 | COc1nc(O)nc(OC)c1-c1cc2cc(NC(=O)[C@@H]3C[C@@H]3F)ncc2n1C [Compound 108, (1S,2S)-2-fluoro-N-(2-(2-hydroxy-4,6-dimethoxypyrimidin-5-yl)-1-methyl-1H-pyrrolo[2,3-c]pyridin-5-yl)cyclopropane-1-carboxamide] |
